In one data set the test system is MCF7 cell line. In words: SRB assay, simultaneous JM118 and 5FU, 48 hours. It counts as cell-based. The following applies: Homo sapiens, read-out: Growth inhibition. On the procedure: For this experiment the human colorectal carcinoma cell line HCT 116 (ATCC order number: CCL-247; Cancer Res (1981) 41, 1751; J Natl Cancer Inst (1982) 69, 767) and the human adenocarcinoma cell line MCF7 (ATCC order number: HTB-22; Cancer Res (1983) 43, 2831; Science (1985) 230, 943) were used.
5FU was dissolved in 0.1% DMSO at a concentration of 20 mM.
Cells were incubated with both compounds simultaneously.

Data set [1] deals with MX-1 tumor (human breast carcinoma). As to conditions: for Median tumor volume / T/C %: capecitabine 750 mg/kg/adm PO Q1Dx8. On the procedure: Healthy female SWISS nu/nu mice, 6-7 weeks old, 17-22 g, were obtained from Charles River (L'Arbresle, France). Animals were acclimated for seven days in a specific-pathogen-free (SPF) animal care unit before treatment. MX-1 tumor implants were purchased and provided by Oncodesign (Dijon, France). MX-1 is a human breast carcinoma cell line.
To induce MX-1 tumors in nude mice ten female SWISS nude mice were subcutaneously implanted with thawed fragments of MX-1 tumor 24 hours after whole body irradiation with a γ-source (Co^60, INRA, Dijon, France). Mice were continuously monitored and terminated when tumors reached 700 to 1000 mm^3. Tumors were then surgically excised and homogenous fresh fragments were subcutaneously implanted in the right flanks of 130 SWISS nude mice.
Ninety (90) mice were randomized into 9 groups of 10 mice each.
Suspensions were continuously agitated during administration to mice.
The treatment schedule was as follows (all dosage indicated are dosages per administration): • Mice from group 1 received one daily PO (oral) administration of satraplatin vehicle (arachis oil, see above) for 5 consecutive days from D21 (day 21) to D25 (referred to as Q1D×5) in combination with one daily PO administration of capecitabine vehicle (Citrate buffer containing Arabic gum, see above) for 8 consecutive days from D21 to D28 (Q1D×8), • Mice from group 2 received one daily PO administration of capecitabine at 750 mg/kg (milligram per kilogram of body weight) for 8 consecutive days from D21 to D28 (Q1D×8), • Mice from group 3 received one daily PO administration of satraplatin at 5 mg/kg for 5 consecutive days from D21 to D25 (Q1D×5), • Mice from group 4 received one daily PO administration of satraplatin at 15 mg/kg for 5 consecutive days from D21 to D25 (Q1 D×5), • Mice from group 5 received one daily PO administration of satraplatin at 25 mg/kg for 5 consecutive days from D21 to D25 (Q1D×5), • Mice from group 6 received one daily PO administration of satraplatin at 45 mg/kg for 5 consecutive days from D21 to D25 (Q1D×5), • Mice from group 7 received one daily PO administration of satraplatin at 5 mg/kg for 5 consecutive days from D21 to 025 (Q1D×5) in combination with one daily PO administration of capecitabine at 750 mg/kg for 8 consecutive days from D21 to D28 (Q1D×8), • Mice from group 8 received one daily PO administration of satraplatin at 15 mg/kg for 5 consecutive days from D21 to D25 (Q1D×5) in combination with one daily PO administration of capecitabine at 750 mg/kg for 8 consecutive days from D21 to D28 (Q1D×8), • Mice from group 9 received one daily PO administration of satraplatin at 25 mg/kg for 5 consecutive days from D21 to D25 (Q1D×5) in combination with one daily PO administration of capecitabine at 750 mg/kg for 8 consecutive days from D21 to D28 (Q1D×8). Satraplatin was administered 30 minutes after capecitabine. Satraplatin and capecitabine were administered at a dose volume of 10 ml/kg body weight.
During the course of the experiment, viability and behaviour of mice were recorded every day. Mice body weight and tumor volume was recorded twice a week. Mice were terminated when tumor weight was equivalent to 10% of body weight or when a body weight loss of 20% was observed.
Tumor growth inhibition (T/C %) is defined as the ratio of the median tumor volume of a given treated group (test or reference substance) versus the equivalent median volume from the control group. T/C % is calculated as follows: […]
The optimal value is the minimal T/C % ratio that reflects the maximal tumor growth inhibition achieved.
Tumor Log cell kill was calculated using the following formula:
[formula] wherein DT is the doubling time of the tumor.

In the next data set the test system is A129 cp80 cell line. In words: SRB cytotoxicity assay, 48 hours, cisplatin-resistant A129 cp80. It counts as cell-based. On the procedure: (§1) The parental non-mutated cell line A129 was used as control.
(§2) Briefly, cells were plated in 96 well dishes 24 hours prior to compound addition. The assay was terminated with the addition of cold TCA to a final concentration of 10% and the plates were incubated for one hour at 4° C. The plates were then washed 5 times with water and 100 μl of a Sulforhodamine B solution ([…]) was added to each well. The plate was then incubated for 10 minutes at room temperature before removal of unbound dye by washing with 1% acetic acid. The bound dye was solubilized with 10 mM Trizma base and the absorbance read at OD570.
(§3) Numbers in brackets indicate how often experiments were performed. In each single experiment a minimum of three replica wells was used for each drug concentration and cell line. Shown are mean values and standard deviations of the IC50s, as determined in the individual experiments. RR denominates the relative resistance, i.e. the relative level of resistance conferred to the indicated drugs.

A further data set relates to A129. As to the kind of experiment: SRB cytotoxicity assay, 48 hours, parental cell line A129. It is filed as cell-based. As to conditions: A129, 48 hours. On the procedure: as §1, §2, §3
Data set [2] relates to UM-UC-3 cell line. In words: SRB assay, sequential: gemcitabine 48 hours, followed by JM118 48 hours. It is filed as cell-based. As to conditions: Homo sapiens, UMUC3, Gemcitabine first, read-out: Growth inhibition. On the procedure:
(§4) Gemcitabine was dissolved in saline at a concentration of 10 mM. Cells were seeded at 1,500 cells per well.
Cells were incubated with both compounds sequentially, wherein cells were incubated with gemcitabine first.

The subject of data set [3] is UM-UC-3 cell line. As to the kind of experiment: SRB assay, sequential: JM-118 48 hours, followed by gemcitabine 48 hours. The following applies: Homo sapiens, UMUC3, JM118 first, read-out: Growth inhibition. It is filed as cell-based. On the procedure: as §4
Cells were incubated with both compounds sequentially, wherein cells were incubated with JM118 first.

Like-named read-outs stand apart in the source and are kept apart here.

Regarding `O=c1[nH]cc(F)c(=O)[nH]1` [5FU, 5-fluorouracil], the inhibition at 0.3125 µM in the data set with MCF7 cell line (JM118 0 + 5FU 0.3125 μM) turned out to be 1.1%. For the same molecule, the inhibition at 0.625 µM in the data set with MCF7 cell line (JM118 0 + 5FU 0.625 μM) was determined as 2.9%. For the same molecule, the inhibition at 1.25 µM in the data set with MCF7 cell line (JM118 0 + 5FU 1.25 μM) came to 7.2%. In the data set on MCF7 cell line (JM118 0 + 5FU 2.5 μM), the inhibition at 2.5 µM is 17.3%. The inhibition at 5 µM in the data set with MCF7 cell line (JM118 0 + 5FU 5 μM) came out at 37.4%. The inhibition at 10 µM with MCF7 cell line (JM118 0 + 5FU 10 μM) was determined as 67.7%.
Turning to `CCCCCOC(=O)Nc1nc(=O)n([C@@H]2O[C@H](C)[C@@H](O)[C@H]2O)cc1F` [Capecitabine], in data set [1] (capecitabine 750 mg/kg alone), the “tumor log cell kill” value worked out at 0.2. Moreover, the Median tumor volume in data set [1] (D21) is recorded as 98.8 mm^3; in data set [1] (D26), 217.5 mm^3; in data set [1] (D29), 322.1 mm^3; in data set [1] (D33) it was 498.2 mm^3; in data set [1] (D36), 711.0 mm^3; in data set [1] (D40) it was 1046.3 mm^3. The Median tumor volume in data set [1] (D43) is on record as 1598.0 mm^3. Further, the T/C % in data set [1] (D21) is 124%; in data set [1] (D26), 114%; in data set [1] (D29), 81%; in data set [1] (D33), 65%; in data set [1] (D36), 62%; in data set [1] (D40) it was 66%. Also, in data set [1] (D43), the T/C % amounted to 68%.
As for `N.N.[Cl][Pt][Cl]` [Cisplatin], the IC50 is 15.1 µM in the data set with A129 cp80 cell line (A129 cp80, 48 hours) and 0.23 µM in the data set on A129. Besides, the “RR (relative resistance)” value in the data set on A129 cp80 cell line (A129 cp80 versus A129) was 80 +/− 25.
With `Nc1ccn([C@@H]2O[C@H](CO)[C@@H](O)C2(F)F)c(=O)n1` [Gemcitabine, 2′,2′-difluorodeoxycytidine], in the data set with UM-UC-3 cell line [2] (JM118 0 + Gemcitabine 0.0015625 μM), the inhibition at 0.0015625 µM is 0.2%. Moreover, in the data set with UM-UC-3 cell line [2] (JM118 0 + Gemcitabine 0.003125 μM), the inhibition at 0.003125 µM was found to be 1.2%. Moreover, the inhibition at 0.00625 µM with UM-UC-3 cell line [2] (JM118 0 + Gemcitabine 0.00625 μM) is 8.3%. Moreover, the inhibition at 0.0125 µM with UM-UC-3 cell line [2] (JM118 0 + Gemcitabine 0.0125 μM) came to 41.7%. Moreover, in the data set on UM-UC-3 cell line [2] (JM118 0 + Gemcitabine 0.025 μM), the inhibition at 0.025 µM was 87.8%. Also, the inhibition at 0.05 µM with UM-UC-3 cell line [2] (JM118 0 + Gemcitabine 0.05 μM) was found to be 103%. For the same molecule, the inhibition at 0.002 µM with UM-UC-3 cell line [3] (JM118 0 + Gemcitabine 0.0020 μM) amounted to 2.6%. Further, the inhibition at 0.0039 µM in the data set with UM-UC-3 cell line [3] (JM118 0 + Gemcitabine 0.0039 μM) stood at 8.7%. For the same molecule, the inhibition at 0.0078 µM in the data set on UM-UC-3 cell line [3] (JM118 0 + Gemcitabine 0.0078 μM) was 23.4%. For the same molecule, the inhibition at 0.0156 µM in the data set on UM-UC-3 cell line [3] (JM118 0 + Gemcitabine 0.0156 μM) is 43.9%. Also, in the data set on UM-UC-3 cell line [3] (JM118 0 + Gemcitabine 0.0313 μM), the inhibition at 0.0313 µM worked out at 57.8%. The inhibition at 0.0625 µM with UM-UC-3 cell line [3] (JM118 0 + Gemcitabine 0.0625 μM) amounted to 63.3%.
As for `CC(=O)[O][Pt]([NH2])([Cl])([Cl])([NH]C1CCCCC1)[O]C(C)=O` [Satraplatin], the toxicity in mice entry in data set [1] (satraplatin 45 mg/kg) is listed as “toxic effects”.

For the origin of these results see patent US8048888B2, “Anti-proliferative combination therapy using certain platinum-based chemotherapeutic agents and EGFR inhibitors or pyrimidine analogues” (Agennix AG, priority 2005, dated 2011).
